From patent US20070179135A1 (priority 2006, published 2007)
In brackets after ≈: the same amount, converted by molar mass. Read-outs that look alike come from different tables or passages of the source.

How the values were obtained:
[1] = molecular target: CB2 receptor (Homo sapiens, UniProt P34972); conditions: cited from earlier work; for Ki: CB2 receptor; for Ki-CB1/Ki-CB2 ratio: selectivity CB1 versus CB2
[2] = tested on: six cell lines; assay: Antineoplastic assessment, SRB assay, summary over six cell lines; format: cell-based; conditions: 120 h, read-out: IC50 in six cell lines
Description: (§1) Cell Lines. Cell lines indicated in table 2 were propagated under sterile conditions in RPMI 1640 or DMEM with 10% fetal calf serum, 2 mM L-glutamine, and sodium bicarbonate (“complete medium”) and incubated at 37° C. 5% CO2 and 95% humidity. Each cell line was subcultured once or twice weekly, and they were periodically screened for mycoplama contamination (positive cultures were cured over three passages with antibiotic). Only cultures free of mycoplasma were used for antineoplastic assessment. Antineoplastic Assessment. Cells from each cell line were harvested, pelleted to remove the media, and then suspended in fresh complete medium. The cell count was determined and viability was measured with propidium iodide staining. The cells were adjusted with complete medium to a density of 5×10^3 cells/ml. […]
(§2) Following acclamation, the compounds indicated in table 2 were diluted in complete medium. […] Each culture plate contains a cell control (8 wells, mock treated with complete medium), a medium control (7 wells with medium used to subtract out signal generated by media conditions), a solvent control (8 wells), and an air blank (1 well) for calibrating the plate reader. […]
(§3) Five days after treatment, the cells were analyzed for antineoplastic effects using the SRB assay to calculate IC50 for each treatment.

[3] = tested on: HIV-1; assay: microbe, parasite or virus in culture; conditions: Human immunodeficiency virus 1, PBMC, 168 h, read-out: IC50 (50% inhibition of virus replication)
Description: (§5) PBMC Isolation and Blasting. Peripheral blood mononuclear cells (PBMC) obtained from healthy HIV- and hepatitis-negative patients were washed to remove residual gradient separation material. The washed cells were then counted, and their viability assessed. Following this initial preparation, the cells are suspended in RPMI 1640 medium supplemented with 15% inactivated fetal bovine serum, 2 nM L-glutamine, 100 U/ml penicillin, 100 μg/ml streptomycin, and 10 μg/ml gentamycin with 2 μg/ml PHA at 1×10^6 cells/ml. Following a 2 to 3 day incubation (37° C., 5% CO2), the cells were collected by centrifugation, washed, and resuspended in the same medium, supplemented with recombinant IL-2. The cultures were then maintained until use by ½ volume change with fresh IL-12 containing medium every 3 days.
(§6) PBMC Assay. When ready for use, PBMCs from a minimum of two donors that have been blasted with PHA and IL-1 were mixed, counted, and viability determined by trypan blue exclusion. The cells were then resuspended in […] cells/ml in RPMI 1640 supplemented with 15% fetal bovine serum (heat inactivated), 2 mM L-glutamine, 100 U/ml penicillin, 100 μg/ml streptomycin, 10 μg/ml gentamycin and IL-2 (20 U/ml). 50 tl of cells were then distributed to the inner 60 wells of a 96 well plate. Each plate contains cell control wells (cells only), virus control wells (cells plus virus), drug toxicity control wells (cells plus test compound), drug colorimetric control wells (drug only) as well as experimental wells (drug plus cells plus virus). Diluted compounds were then added to the microliter plate followed by the appropriate pre-titered strain of HIV-1. All samples were assayed in triplicate with a sister plate for the determination of compound toxicity. The final volume per well was 200 μl. The assay was incubated for 7 days at 37° C., 5% CO2, after which supernatants were collected for analysis of RT activity and sister plates for assessment of cell viability.
(§7) Reverse Transcriptase Assay. HIV reverse transcriptase was measured in cell free supernatants. Titrated TTP was resuspended in distilled H2O at 5 Ci/ml. Poly rA and oligo dT were prepared as a stock solution which was kept at −20° C. The RT reaction buffer (125 μl 1M EGTA, 125 μl dH20, 110 μl 10% SDS, 50 μl 1M Tris (pH 7.4), 50 μl 1M DTT, and 40 M1 1M MgCL2) was prepared fresh. The three solutions were then mixed together in a ratio of 2 parts TTP, 1 part polyrA:oligo dT, and 1 part buffer. Ten μl of this reaction mixture was then placed in a round bottom micro-liter plate, and 15 ul of virus-containing supematant was added. The plate was incubated at 37° C. in a water bath with a solid support for 60 minutes. Following the reaction, the volume was spotted onto pieces of DE81 paper, washed 5 times for 5 minutes each in a 5% sodium phosphate buffer, 2 times for 1 minute in distilled water, 2 times for 1 minute each in 70% ethanol, and then dried. Opti-Fluor 0 was then added to each sample and incorporated radioactivity was quantified using a scintillation counter.

[4] = tested on: DLO-1 (colon); assay: Antineoplastic assessment, SRB assay, DLO-1; format: cell-based; conditions: read-out: IC50 Molar Values
Description: as §1, §2, §3

[5] = tested on: SNB-7 (CNS); assay: Antineoplastic assessment, SRB assay, SNB-7; format: cell-based; conditions: read-out: IC50 Molar Values
Description: as §1, §2, §3

[6] = tested on: HIV-1; conditions: for antiviral activity (in words): pooled data of Table 1
[7] = XTT viability (TC50) in PBMC assay; conditions: human, PHA-blasted PBMCs
Description: (§4) XTT Staining for Viability. Absence of toxicity was assessed by reduction of 2,3-bis(2-methoxy-4-nitro-5-sulfophenyl)-5-[(phenylamino)carbonyl]2H-tetrazolium hydroxide (XXT). 50 μl of a solution containing 1 mg/ml XTT and […] phenazine methanesulfate (PMS) was added per well, and the plate was incubated for 4 hours at 37° C. Adhesive plate sealers were used in place of the lids so that the sealed plates could be inverted several times to mix the soluble reaction product. Following this incubation, the plates were read spectrophotometrically at 450 nm to assess the degree of reduction product.

[8] = tested on: CAKI-1 (renal); assay: Antineoplastic assessment, SRB assay, CAKI-1; format: cell-based; conditions: read-out: IC50 Molar Values
Description: as §1, §2, §3

[9] = tested on: PC-3 (prostate); assay: Antineoplastic assessment, SRB assay, PC-3; format: cell-based; conditions: read-out: IC50 Molar Values
Description: as §1, §2, §3

[10] = tested on: NCI-H23 (lung); assay: Antineoplastic assessment, SRB assay, NCI-H23; format: cell-based; conditions: Homo sapiens, NCI-H23, 120 h, read-out: IC50 Molar Values
Description: as §1, §2, §3

[11] = tested on: HIV in latently infected U1 cells; assay: TNF induced U1 cells (RT), latently infected cells; format: cell-based
[12] = tested on: U1 cells; assay: XTT viability (TC50) in TNF induced U1 cells; format: cell-based
Excerpt: Latently Infected Cells. […] PBMC Isolation and Blasting.
XTT Staining for Viability.

[13] = tested on: PBMC; assay: XTT viability (TC50) in PBMC assay; conditions: PBMC, XTT; for CC50: read-out: TC50 (50% cytotoxicity)
Description: as §4

[14] = tested on: HIV-1; assay: microbe, parasite or virus in culture; conditions: Human immunodeficiency virus 1, read-out: IC50 (50% inhibition of virus replication)
Description: (§8) Monocyte Isolation and Culture. Peripheral blood monocytes (PBM) were obtained from healthy HIV- and hepatitis-negative donors by ficoll hypaque purification (optionally using recombinant IFNγ. After 7 days, the cultures were washed to remove non adherent cells, and test compounds were added followed by HIV-1. Cultures were washed a final time by media removal 24 hours post infection, fresh test compound was added, and the cultures continued for an additional seven days. Virus replication was then measured by expression of supernatant p24 antigen by commercially available ELISA assays. AZT was used as a positive control run in parallel with each determination.
(§9) Analysis of p24. Viral protein production (p24) was assessed by standard ELISA.

[15] = tested on: Monocyte/macrophage; assay: XTT viability (TC50) in monocyte/macrophage assay; conditions: for CC50: read-out: TC50 (50% cytotoxicity), column head blank
Description: Monocyte Isolation and Culture.
as §4

[16] = tested on: HIV-1; conditions: PBMC, HIV-1, RT activity, 7 days; for IC50: read-out: IC50 (50% inhibition of virus replication)
Description: as §5, §6, §7

[17] = tested on: HIV-1; conditions: monocyte/macrophage, HIV-1, p24 ELISA; for IC50: read-out: IC50 (50% inhibition of virus replication)
Description: as §8, §9

[18] = tested on: ZR-75-1 (mammary); assay: Antineoplastic assessment, SRB assay, ZR-75-1; format: cell-based; conditions: five days, read-out: IC50 Molar Values
Description: as §1, §2, §3

[19] = Human immunodeficiency virus 1, read-out: IC50 (50% inhibition of virus replication)

Sequence of CB2 receptor (P34972 whole entry): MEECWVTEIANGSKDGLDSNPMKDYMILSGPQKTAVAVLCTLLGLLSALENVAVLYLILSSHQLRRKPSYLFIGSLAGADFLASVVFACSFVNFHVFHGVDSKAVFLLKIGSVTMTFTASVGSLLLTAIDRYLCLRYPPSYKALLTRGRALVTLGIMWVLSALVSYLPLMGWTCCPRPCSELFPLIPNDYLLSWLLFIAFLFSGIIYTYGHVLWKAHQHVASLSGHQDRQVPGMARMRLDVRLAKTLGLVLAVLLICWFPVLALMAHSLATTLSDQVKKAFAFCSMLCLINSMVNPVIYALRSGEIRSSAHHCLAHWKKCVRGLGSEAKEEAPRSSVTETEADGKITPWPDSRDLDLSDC

C=C1CC[C@@H]2[C@@H](C1)c1c(OC)cc(C(C)(C)CCCCCC)cc1OC2(C)C [Example L759656]
Ki [1]: 0.0118 ± 0.0025 µM
Ki-CB1/Ki-CB2 ratio [1]: 414.24

CC(C)CCCC(C)(C)c1cc(O)cc(O)c1
IC50 [2]: 77 to 95 µM
IC50 [3]: 14.8 µM
IC50 ([4]; 120 h): 90 µM
IC50 ([5]; Homo sapiens, SNB-7, 120 h): 95 µM
antiviral activity (in words) [6]: moderate antiviral activity
melting point: 95 to 96 °C
CC50 at 7 days [7]: 44.6 µM
IC50 ([8]; Homo sapiens, CAKI-1, 120 h): 93 µM
IC50 ([9]; 120 h): 84 µM
IC50 [10]: 77 µM

CCCCCCC(C)(C)c1cc(OC)c2c(c1)OC(C)(C)[C@@H]1CC=C(C)C[C@@H]21 [Example L759633]
Ki [1]: 0.0064 ± 0.0022 µM
Ki-CB1/Ki-CB2 ratio [1]: 162.97

C=C(C)[C@@H]1CCC(C)=C[C@H]1c1c(O)cc(CCCCC)cc1O [Cannabidiol, reference compound]
IC50 [3]: 1.52 µg/mL
IC50 [11, 19]: 2.76 µg/mL
TC50 (50% cytotoxicity) [12]: 7.8 µg/mL (≈ 24.8 µM)
antiviral activity (in words) [6]: moderate antiviral activity
TC50 (50% cytotoxicity) [13]: 7.76 µg/mL (≈ 24.7 µM)
IC50 [14]: 8.18 µg/mL (≈ 26 µM)
TC50 (50% cytotoxicity), column head blank [15]: 22.87 µg/mL (≈ 72.7 µM)

CCCCCn1cc(C(=O)c2cccc3ccccc23)c2ccccc21 [JWH-018]
Ki [1]: 0.00294 ± 0.00265 µM
Ki-CB1/Ki-CB2 ratio [1]: 3.23

COc1cc(OC)cc(C(C)(C)CCCC(C)C)c1 [4-(1,1,5-trimethylhexyl)-2,6-dimethoxybenzene]
IC50 [3]: > 200 µM
CC50 at 7 days [7]: > 200 µM

CCCCCc1cc(O)c2c(c1)OC(C)(C)c1ccc(C)cc1-2 [Cannabinol]
IC50 [3]: 6.91 µg/mL
IC50 [11, 19]: 5.14 µg/mL
TC50 (50% cytotoxicity) [12]: 5.26 µg/mL (≈ 16.9 µM)
TC50 (50% cytotoxicity) [13]: 7.66 µg/mL (≈ 24.7 µM)
IC50 [14]: 7.7 µg/mL (≈ 24.8 µM)
TC50 (50% cytotoxicity), column head blank [15]: 13.07 µg/mL (≈ 42.1 µM)

COc1cc(C(C)(C)CCCC(C)C)cc(OC)c1O [4-(1,1,5-trimethylhexyl)-2,6-dimethoxy phenol]
IC50 [3]: 15.8 µM
antiviral activity (in words) [6]: moderate antiviral activity
CC50 at 7 days [7]: 50.9 µM

Cc1cc(O)cc(O)c1 [Orcinol]
IC50 [3]: > 200 µM
CC50 at 7 days [7]: > 200 µM

COc1cc(O)cc(C(C)(C)CCCC(C)C)c1 [3-methoxy-5-(1,1,5-trimethylhexyl)phenol]
IC50 [3]: 39.9 µM
CC50 at 7 days [7]: 46.4 µM

Oc1cccc(O)c1 [Resorciol]
IC50 [16]: > 200 µM
CC50 [13]: > 200 µM

CCCCCc1cc(O)c2c(c1)OC(C)(C)C1CCC(C(=O)O)=CC21 (centres unmarked)
IC50 (50% inhibition of virus replication) [17]: 7.79 µg/mL
IC50 (50% inhibition of virus replication) [16]: 39.09 µg/mL
IC50 (50% inhibition of virus replication) [11]: 6.69 µg/mL
TC50 (50% cytotoxicity) [12]: 23.71 µg/mL (≈ 68.8 µM)
antiviral activity (in words) [6]: moderate antiviral activity
TC50 (50% cytotoxicity) [13]: 71.1 µg/mL (≈ 206 µM)
TC50 (50% cytotoxicity), column head blank [15]: 76.73 µg/mL (≈ 223 µM)

CCCCCc1cc(O)cc(O)c1 [Olivitol]
IC50 [17]: 63.7 µM
IC50 [16]: 16.9 µM
IC50 ([11]; read-out: IC50 (50% inhibition of virus replication)): 22.5 µM
IC50 ([4]; DLO-1 (colon), SRB, five days): 230 µM
CC50 ([12]; read-out: TC50 (50% cytotoxicity)): 77.5 µM
IC50 ([5]; SNB-7 (CNS), SRB, five days): 220 µM
antiviral activity compared between cell systems (in words) ([6]; PBMCs and TNFa induced U1 cells versus monocytes/macrophages or uninduced U1 cells): more pronounced in the PBMCs and TNFa induced U1 cells than in monocytes/macrophages or uninduced U1 cells
antiviral activity (in words) [6]: moderate antiviral activity
CC50 [13]: > 100 µM
IC50 ([8]; CAKI-1 (renal), SRB, five days): 220 µM
IC50 ([9]; PC-3 (prostate), SRB, five days): 200 µM
CC50 [15]: 75.9 µM
IC50 [18]: 200 µM

Nc1ccn([C@H]2CC[C@@H](CO)O2)c(=O)n1 [DdC, reference compound]
IC50 [17]: 0.0028 µM
IC50 [16]: 0.0876 µM
CC50 [13]: > 10 µM
CC50 [15]: > 10 µM

Cc1cn([C@H]2C[C@H](N=[N+]=[N-])[C@@H](CO)O2)c(=O)[nH]c1=O [AZT, reference compound]
CC50 [15]: > 4 µM

CCCCCc1cc(O)c2c(c1)OC(C)(C)[C@@H]1CCC(C)=C[C@@H]21 [A9 tetrahydrocannabinaol, reference compound]
IC50 (50% inhibition of virus replication) [17]: >0.1 µg/mL
IC50 (50% inhibition of virus replication) [16]: 0.07 µg/mL
IC50 (50% inhibition of virus replication) [11]: 0.06 µg/mL
TC50 (50% cytotoxicity) [12]: 0.088 µg/mL (≈ 0.28 µM)
TC50 (50% cytotoxicity) [13]: >0.1 µg/mL
TC50 (50% cytotoxicity), column head blank [15]: >0.1 µg/mL

CCO [EtOH]
IC50 (50% inhibition of virus replication) [17]: 0.06%
IC50 (50% inhibition of virus replication) [16]: >0.1%
IC50 (50% inhibition of virus replication) [11]: >0.1%
TC50 (50% cytotoxicity) [12]: >0.1%
TC50 (50% cytotoxicity) [13]: >0.1%
TC50 (50% cytotoxicity), column head blank [15]: >1%
